Target: T1, IRAK3-ePL (Homo sapiens, UniProt Q9Y616)
T1 construct: expressed in transfected cells; host or cells: 293T CRBN OE/GSPT1 G575N KI cells, lentiviral transduction, puromycin selected
Assay: IRAK3-ePL overexpressing degradation assay (InCELL Hunter luminescence, dose response)
Assay type: cell-based
Conditions: for IRAK3 ePL degradation Ymin: lowest percentage of target protein remaining following compound treatment; for DC50: read-out: IRAK3 ePL degradation EC50
Summary of the method: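 Lenti-X 293T CRBN/GSPT1 G575N cells stably expressing IRAK3-ePL (5,000/well) treated overnight at 37° C with 10-point 3-fold dilutions from 10 μM, 0.2% DMSO. InCELL Hunter luminescence, background subtracted using Ataluren wells and normalized to DMSO; EC50 from four-parameter logistic fit.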

IRAK3 ePL degradation Ymin [%]	DC50 [nM]	Compound
25	4.1	O=C1CCC(c2ccc(N3CCN(CCN4CCC(n5cc(Nc6ncc(-c7ccccc7F)n7ccnc67)cn5)CC4)CC3)cc2)C(=O)N1 (centres unmarked) [Compound 75, 3-(4-(4-(2-(4-(4-((5-(2-fluorophenyl)imidazo [1,2-a]pyrazin-8-yl)amino)-1H-pyrazol-1-yl)piperidin-1-yl)ethyl)piperazin-1-yl)phenyl) piperidine-2,6-dione]
78		Cc1cc(-c2cnc(Nc3cnn(C4CCN(CCN5CCN(c6ccc([C@]7(C)CCC(=O)NC7=O)cc6)CC5)CC4)c3)c3nccn23)c(F)cc1F [Compound 76, (S)-3-(4-(4-(2-(4-(4-((5-(2,4-difluoro-5-methylphenyl)imdazo [1,2-a]pyrazin-8-yl)amino)-1H-pyrazol-1-yl)piperidin-1-yl)ethyl)piperazin-1-yl)phenyl)-3-methylpiperidine-2,6-dione]
27	1.1	Cc1cc(-c2cnc(Nc3cnn(C4CCN(CCN5CCN(c6ccc([C@@]7(C)CCC(=O)NC7=O)cc6)CC5)CC4)c3)c3nccn23)c(F)cc1F [Compound 77, (R)-3-(4-(4-(2-(4-(4-((5-(2,4-difluoro-5-methylphenyl)imdazo [1,2-a]pyrazin-8-yl)amino)-1H-pyrazol-1-yl)piperidin-1-yl)ethyl)piperazin-1-yl)phenyl)-3-methylpiperidine-2,6-dione]
28	26	O=C1CCC(c2ccc(N3CCN(CCN4CCC(n5cc(Nc6ncc(-c7cccc(F)c7)n7ccnc67)cn5)CC4)CC3)cc2)C(=O)N1 (centres unmarked) [Compound 80, 3-(4-(4-(2-(4-(4-((5-(3-fluorophenyl)imidazo [1,2-a]pyrazin-8-yl)amino)-1H-pyrazol-1-yl)piperidin-1-yl)ethyl)piperazin-1-yl)phenyl) piperidine-2,6-dione]
27	3.3	Cc1cc(-c2cnc(Nc3cnn([C@H]4CC[C@H](CCN5CCN(c6ccc([C@@]7(C)CCC(=O)NC7=O)cc6)CC5)CC4)c3)c3nccn23)c(F)cc1F [Compound 81, (R)-3-(4-(4-(2-((trans)-4-(4-((5-(2,4-difluoro-5-methylphenyl)imidazo[1,2-a]pyrazin-8-yl)amino)-1H-pyrazol-1-yl)cyclohexyl)ethyl)piperazin-1-yl)phenyl)-3-methylpiperidine-2,6-dione]
66		Cc1cc(-c2cnc(Nc3cnn([C@H]4CC[C@H](CCN5CCN(c6ccc([C@]7(C)CCC(=O)NC7=O)cc6)CC5)CC4)c3)c3nccn23)c(F)cc1F [Compound 82, (S)-3-(4-(4-(2-((trans)-4-(4-((5-(2,4-difluoro-5-methylphenyl)imidazo[1,2-a]pyrazin-8-yl)amino)-1H-pyrazol-1-yl)cyclohexyl)ethyl)piperazin-1-yl)phenyl)-3-methylpiperidine-2,6-dione]

Continued, compound first:

Compound	IRAK3 ePL degradation Ymin [%]	DC50 [nM]
Cc1cc(-c2cnc(Nc3cnn(C4CCN(CC(=O)N5CCN(c6ccc(C7CCC(=O)NC7=O)cc6)CC5)CC4)c3)c3nccn23)c(F)cc1F (centres unmarked) [Compound 17, 3-(4-(4-(2-(4-(4-((5-(2,4-difluoro-5-methylphenyl)imidazo[1,2-a]pyrazin-8-yl)amino)-1H-pyrazol-1-yl)piperidin-1-yl)acetyl)piperazin-1-yl)phenyl)piperidine-2,6-dione]	14	0.51
Cc1cc(-c2cnc(Nc3cnn(C4CCN(CC(=O)N5CCN(c6ccc7c(c6)C(=O)N(C6CCC(=O)NC6=O)C7)CC5)CC4)c3)c3nccn23)c(F)cc1F (centres unmarked) [Compound 18, 3-(6-(4-(2-(4-(4-((5-(2,4-difluoro-5-methylphenyl)imidazo[1,2-a]pyrazin-8-yl)amino)-1H-pyrazol-1-yl)piperidin-1-yl)acetyl)piperazin-1-yl)-1-oxoisoindolin-2-yl)piperidine-2,6-dione]	22	9.7
Cc1cccc(-c2cnc(Nc3cnn(C4CCN(CC(=O)N5CCN(c6ccc7c(c6)CN(C6CCC(=O)NC6=O)C7=O)CC5)CC4)c3)c3nccn23)c1 (centres unmarked) [Compound 19, 3-(1-oxo-5-(4-(2-(4-(4-((5-(m-tolyl)imidazo[1,2-a]pyrazin-8-yl)amino)-1H-pyrazol-1-yl)piperidin-1-yl)acetyl)piperazin-1-yl)isoindolin-2-yl)piperidine-2,6-dione]	18	12
Cc1cc(-c2cnc(Nc3cnn(C4CCN(CCN5CCN(c6cccc(C7CCC(=O)NC7=O)c6)CC5)CC4)c3)c3nccn23)c(F)cc1F (centres unmarked) [Compound 31, 3-(3-(4-(2-(4-(4-((5-(2,4-difluoro-5-methylphenyl)imdazo [1,2-a]pyrazin-8-yl)amino)-1H-pyrazol-1-yl)piperidin-1-yl)ethyl)piperazin-1-yl)phenyl) piperidine-2,6-dione]	44	38
Cc1cc(-c2cnc(Nc3cnn(C4CCN(CCN5CCN(c6ccc(C7CCC(=O)NC7=O)cc6)CC5)CC4)c3)c3nccn23)ccc1F (centres unmarked) [Compound 33, 3-(4-(4-(2-(4-(4-((5-(4-fluoro-3-methylphenyl)imdazo [1,2-a]pyrazin-8-yl)amino)-1H-pyrazol-1-yl)piperidin-1-yl)ethyl)piperazin-1-yl)phenyl) piperidine-2,6-dione]	24	7.9
Cc1cc(-c2cnc(Nc3cnn([C@H]4CCN(CCN5CCN(c6ccc(C7CCC(=O)NC7=O)cc6)C[C@H]5C)[C@@H](C)C4)c3)c3nccn23)c(F)cc1F (stereo partly drawn) [Compound 35, 3-(4-((R)-4-(2-((2S,4S)-4-(4-((5-(2,4-difluoro-5-methylphenyl)imdazo [1,2-a]pyrazin-8-yl)amino)-1H-pyrazol-1-yl)-2-methylpiperidin-1-yl)ethyl)-3-methylpiperazin-1-yl)phenyl) piperidine-2,6-dione]	24	0.63
Cc1cc(-c2cnc(Nc3cnn([C@H]4CCN(CCN5CCN(c6ccc(C7CCC(=O)NC7=O)cc6)CC5)C[C@@H]4F)c3)c3nccn23)c(F)cc1F (stereo partly drawn) [Compound 72, 3-(4-(4-(2-((3S,4S)-4-(4-((5-(2,4-difluoro-5-methylphenyl)imdazo [1,2-a]pyrazin-8-yl)amino)-1H-pyrazol-1-yl)-3-fluoropiperidin-1-yl)ethyl)piperazin-1-yl)phenyl) piperidine-2,6-dione]	24	0.51
O=C1CCC(c2ccc(N3CCN(CCN4CCC(n5cc(Nc6ncc(-c7ccc(F)cc7)n7ccnc67)cn5)CC4)CC3)cc2)C(=O)N1 (centres unmarked) [Compound 74, 3-(4-(4-(2-(4-(4-((5-(4-fluorophenyl)imidazo [1,2-a]pyrazin-8-yl)amino)-1H-pyrazol-1-yl)piperidin-1-yl)ethyl)piperazin-1-yl)phenyl) piperidine-2,6-dione]	26	1

— patent US20260216347A1, “Substituted Imidazo-Based Compounds as Ligand Directed Degraders of IRAK3” (Celgene Corporation, priority 2022, published 2026)
